Measurements: publication PMC9447362
Read-outs that look alike come from different tables or passages of the source.

Legend:
[1] = system: P4 G4 (P4-WT RNA); assay: CD spectra and CD melting of P4-WT with G4-specific ligands; format: binding, SARS-CoV-2
Procedure: For CD spectra and CD melting experiments, the DNA or RNA oligonucleotide samples pre-heated at 95 °C for 10 min were slowly cooled to room temperature, and then were incubated at 4 °C for 24 h. The samples were detected by JASCO J-810 spectropolarimeter equipped with a temperature-controlled water bath. In CD melting experiments, versus temperatures were collected at a heating rate of 1 °C/min.

[2] = system: P4 G4; assay: In vitro translation (IVT) assays; format: biochemical, SARS-CoV-2
[3] = system: P4 G4; assay: Protein expression from pCAG-Flag vector with P4-WT or P4-Mut in HeLa and HEK293T cells (western blotting); format: cell-based, SARS-CoV-2; conditions: concentration-dependent
[4] = system: RNA with P4 G4; assay: Cell-based RNA replication assays with SARS-CoV-2 RdRp (nsp12, nsp7, nsp8) in HEK293T cells, qRT-PCR; conditions: compared with P4-Mut, dose-dependent
Description: Cell-based RNA replication assay system was applied[43]–[45]. The plasmids nsp12, nsp7 and nsp8 were used to express codon-optimized Flag-nsp12, Flag-nsp7 and Flag-nsp8, respectively, all of which contain a Flag tag at the C-terminus. To generate the SARS-CoV-2 transcripts with P4 G4 site for RNA replication assays, 5’ untranslated region (UTR)-P4 G4 -3’ UTR was first synthesized, then inserted into the pGEM-T esay vector. And the SARS-CoV-2 RNA with P4 G4 site was produced using T7 RNA polymerases from a standard in vitro transcription kit.
HEK293T cells were transfected with the RNA with P4 G4 site, nsp12, nsp7, and nsp8 plasmids at the ratio of 1:10:30:30. At 12 h post transfection, cells were re-seeded in 24-well plates (4 × 10^4/well) and treated with PDP or TMPyP4. After 48 h incubation, cells were collected and measured for RNA levels by qRT-PCR assays.

[5] = system: P4 G4; format: cell-based, SARS-CoV-2; conditions: 10 μM TMPyP4 or 2.5 μM PDP
[6] = system: SARS-CoV-2; assay: microbe, parasite or virus in culture; format: cell-based; conditions: for EC50: read-out: EC50 (half-maximal effective doses), antiviral; for EC90: read-out: EC90 (90% maximal effective doses), antiviral; for protein levels of nucleoprotein, Vero E6 cells: western blotting
[7] = system: Vero E6 cells; conditions: African green monkey
[8] = in vitro; conditions: African green monkey
[9] = system: SARS-CoV-2; format: cell-based, SARS-CoV-2 (BetaCoV/Beijing/IME-BJ05-2020); conditions: for protein levels of nucleoprotein, Calu-3 cells: western blotting
[10] = system: P2 G4; format: cell-based, SARS-CoV-2; conditions: 10 μM, HEK293T cells
[11] = system: P3 G4; format: cell-based, SARS-CoV-2; conditions: 10 μM, HEK293T cells
[12] = system: P6 G4; format: cell-based, SARS-CoV-2; conditions: 10 μM, HEK293T cells
[13] = system: P1; format: cell-based, SARS-CoV-2; conditions: 10 μM, HEK293T cells
[14] = system: P13 G4; assay: RNA replication assay, RNA with P13 G4 in HEK293T cells; format: cell-based, SARS-CoV-2
[15] = system: P14 G4; assay: RNA replication assay, RNA with P14 G4 in HEK293T cells; format: cell-based, SARS-CoV-2
[16] = system: SARS-CoV-2; conditions: mouse, in vivo
[17] = hamster plasma, 30 mg/kg i.n., single dose
[18] = 30 mg/kg i.n. once daily for 7 consecutive days
[19] = cited from earlier work
[20] = system: Vero E6 cells; assay: Cell viability, SRB assays; conditions: Vero E6 cells, SRB assays
[21] = system: SARS-CoV-2; assay: In vivo antiviral studies in SARS-CoV-2-infected Syrian hamsters
Procedure: The in vivo antiviral studies were carried out in an ABSL3 facility in Changchun
Veterinary Research Institute, Chinese Academy of Agricultural Sciences. All animal
studies were performed in strict accordance with the guidelines set by the Chinese
Regulations of Laboratory Animals and Laboratory Animal-Requirements of
Environment and Housing Facilities. All animals used in this study were chosen
antiviral in SARS-CoV-2 infection. First, we use a model of Syrian hamsters; and
second, we used a model of human angiotensin-converting enzyme 2 (hACE2)-KI/IOZ
10) or saline (n = 5) 1 h prior to infection. Then the hamsters were anesthetized and
infected intranasally with 105 TCID50 of SARS-CoV-2. For the low challenge dose
For the high challenge dose
The conditions of hamsters
including body weight were monitored daily until sacrifice. 3 days post infection (dpi),
the hamsters were humanely euthanized. The nasal wash, nasal tissues and lung tissues
were harvested for viral titration and pathological examination. Briefly, the nasal
tissues and lung tissues were weighed, and 1 gram of each tissue was placed into 1
mL of PBS containing 100 U/mL penicillin, making 10% weight/volume
homogenates. The tissue samples were homogenized by Tissue Lyser (QIAGEN,
Germany) and centrifuged at 8,000 rpm. The supernatants were then collected and
inoculated into Vero E6 cells, and viral RNA copy numbers and viral titration were
determined by qRT-PCR and TCID50, respectively. Meanwhile, the lungs were fixed
in formalin, and the fixed tissues were embedded in paraffin and stained with H&E
for pathological examination.
therapeutic treatment in vivo, the hamsters were pre-infected with the virus (105
intraperitoneal, i.p., 15 mg/kg)) 1 h prior to infection. Then the hamsters were
anesthetized and infected intranasally with 105 TCID50 of SARS-CoV-2. The conditions
of hamsters including body weight were monitored daily until sacrifice. 3 dpi, the
hamsters were humanely euthanized. The nasal wash, nasal tissues and lung tissues
were harvested for viral titration and pathological examination.
Lung histological analysis
Lung histological analysis was examined by an experienced pathologist. H&E stained
sections of lung from hamsters and mice were examined by implementing a semi
quantitative, 5 point grading scheme (0-within normal limits, 1-mild, 2-moderate,

[22] = Cell viability, SRB assays; conditions: African green monkey
[23] = Severe acute respiratory syndrome coronavirus 2, Vero C1008, Vero E6 cells, 10^3 TCID50 virus/mL, 72 h post infection, viral RNA copies/mL
[24] = dose-dependent, 72 h post infection
[25] = hamster, 15 mg/kg i.p., day 3 after infection

SMILES: NCCOc1cc(C(=O)Nc2cc(OCCN3CCCC3)c3ccccc3n2)nc(C(=O)Nc2cc(OCCN3CCCC3)c3ccccc3n2)c1 [PDP]
- effect on the thermal stability of P4 G4 [1]: significantly enhanced the thermal stability
- IVT of P4-WT ([2]; P4-WT): inhibited the IVT of P4-WT
- protein levels of P4-WT [3]: decreased the protein levels of P4-WT
- replication of P4-WT RNA [4]: significantly inhibit the replication of P4-WT
- P4-WT EGFP fluorescence intensity [5]: inhibited the P4-WT EGFP fluorescence intensity
- P4-Mut EGFP fluorescence intensity [5]: not P4-Mut
- SI (selectivity index) [6]: 7.78
- EC50 [6, 23]: 0.63 µM
- EC90 [6, 23]: > 2 µM
- viral RNA copies and viral titers in Vero E6 cells [6, 24]: significantly reduced viral RNA copies and viral titers
- CC10 (10% cytotoxic concentration) [7]: 2.84 µM
- CC50 [8]: 4.9 µM

SMILES: C[n+]1ccccc1-c1c2nc(c(-c3cccc[n+]3C)c3ccc([nH]3)c(-c3cccc[n+]3C)c3ccc([nH]3)c(-c3cccc[n+]3C)c3nc1C=C3)C=C2 [TMPyP2]
- effect on the thermal stability of P4 G4 [1]: no effects on the thermal stability
- protein levels of P4-WT [3]: no effects
- replication of P4-WT RNA [4]: no effects
- P4-WT EGFP fluorescence intensity [5]: no effects
- protein levels of nucleoprotein, Vero E6 cells ([6]; 100 μM): not TMPyP2
- protein levels of nucleoprotein, Calu-3 cells ([9]; 100 μM): not TMPyP2

SMILES: C[n+]1ccc(-c2c3nc(c(-c4cc[n+](C)cc4)c4ccc([nH]4)c(-c4cc[n+](C)cc4)c4nc(c(-c5cc[n+](C)cc5)c5ccc2[nH]5)C=C4)C=C3)cc1 [TMPyP4, 5,10,15,20-tetrakis-(N-methyl-4-pyridyl)porphine]
- effect on the thermal stability of P4 G4 [1]: significantly enhanced the thermal stability
- IVT of P4-WT [2]: inhibited the IVT of P4-WT
- protein levels of P4-WT [3]: decreased the protein levels of P4-WT
- replication of P4-WT RNA [4]: significantly inhibit the replication of P4-WT
- P4-WT EGFP fluorescence intensity [5]: inhibited the P4-WT EGFP fluorescence intensity
- P4-Mut EGFP fluorescence intensity [5]: not P4-Mut
- EGFP expression, P2-EGFP [10]: inhibited EGFP expression
- EGFP expression, P3-EGFP [11]: inhibited EGFP expression
- EGFP expression, P6-EGFP [12]: inhibited EGFP expression
- EGFP expression, P1-EGFP [13]: not P1
- RNA replication, RNA with P13 G4 [14]: suppressed RNA replication
- RNA replication, RNA with P14 G4 [15]: suppressed RNA replication
- SI (selectivity index) [6]: > 112.74
- antiviral activity of TMPyP4 after pre-transfection of ASOs targeting viral G4s [6]: significantly inhibited by ASO targeting viral G4s
- maximal viral RNA copies reduction in the Vero E6 cell culture supernatant [6]: ~ 7 log10
- maximal viral RNA copies reduction in the Vero E6 cell lysate [6]: ~ 6 log10
- maximal viral titers reduction in the culture supernatant of Vero E6 cell [6]: ~ 6 log10
- viral RNA copies and viral titers in Vero E6 cells [6]: significantly reduced viral RNA copies and viral titers
- viral loads in Vero E6 cells pre-infected with SARS-CoV-2 [6]: significantly decreased the viral loads
- protein levels of nucleoprotein, Vero E6 cells ([6]; 100 μM): significantly suppress the protein levels of nucleoprotein
- time-of-addition: stage of action ([6]; Vero E6 cells, 100 μM): functioned at a stage post SARS-CoV-2 entry
- antiviral synergy with remdesivir in vitro ([6]; combination of TMPyP4 and remdesivir): did not exhibit antiviral synergy
- EC50 [6]: 8.87 µM
- EC90 [6]: 13.2 µM
- protein levels of nucleoprotein, Calu-3 cells ([9]; 100 μM): significantly suppress the protein levels of nucleoprotein
- mRNA expression of pro-inflammatory cytokines and chemokines ([9]; Calu-3 cells, 100 μM, qRT-PCR): decrease the mRNA expression of pro-inflammatory cytokines and chemokines
- virus infection in Calu-3 cells ([9]; human lung epithelial Calu-3 cells): inhibited virus infection efficiently
- viral loads in the nasal turbinate and lung tissues [16]: significantly decreased the viral loads in the nasal turbinate and lung tissues
- Cmax [17]: 17880 ng/mL
- area under the curve (AUC) [17]: 167.32 h⋅μg/mL
- half-life (T1/2) [17]: 6.36 h
- toxicity in hamsters [18]: no noticeable toxicity in the hamsters
- toxicity in the lung tissues of hamsters [18]: no noticeable toxicity in the lung tissues of hamsters
- toxicity in the animals for short-term treatment [19]: no noticeable toxicity
- CC10 (10% cytotoxic concentration) [20]: 727.7 µM
- CC50 ([20]; read-out: CC50 (half-cytotoxic concentration)): > 1000 µM
- antiviral synergy with remdesivir in hamsters ([21]; TMPyP4 15 mg/kg i.n. combined with remdesivir 15 mg/kg i.p.): did not exhibit antiviral synergy with remdesivir in hamsters
- decrease of mean viral loads (viral RNA copies/mL and TCID50/mL) in nasal wash, nasal turbinate and lung tissues ([21]; hamster, in vivo): 2–4 log10
- lung damage (histopathology) ([21]; hamster, in vivo): significantly ameliorate lung damage
- mRNA expression of inflammatory-associated genes in the lungs ([21]; hamster, in vivo): reduced mRNA expression of inflammatory-associated genes in the lungs
- maximal viral RNA copies reduction in the nasal wash, nasal turbinate and lung tissues ([21]; hamster, in vivo, 15 mg/kg): ~ 3 log10
- viral titers reduction in the nasal wash, nasal turbinate and lung tissues ([21]; hamster, in vivo, 15 mg/kg): ~ 3.5 log10
- lung damage, therapeutic treatment ([21]; hamster, in vivo, 30 mg/kg): could ameliorate lung damage
- viral loads in nasal wash, nasal turbinate and lung tissues, therapeutic treatment ([21]; hamster, in vivo, 30 mg/kg): significantly decreased the viral loads

SMILES: CCC(CC)COC(=O)[C@H](C)N[P@](=O)(OC[C@H]1O[C@@](C#N)(c2ccc3c(N)ncnn23)[C@H](O)[C@@H]1O)Oc1ccccc1 [remdesivir]
- maximal viral titers reduction in the culture supernatant of Vero E6 cell ([6]; 72 h post infection, TCID50): ~ 3 log10
- maximal viral RNA copies reduction in the Vero E6 cell culture supernatant ([6]; 72 h post infection, qRT-PCR): ~ 4 log10
- maximal viral RNA copies reduction in the Vero E6 cell lysate ([6]; 72 h post infection, qRT-PCR): 3 log10
- EC50 [6, 23]: 1.33 µM
- EC90 [6, 23]: 2.42 µM
- SI (selectivity index) ([6]; Vero E6 cells, CC50/EC50): > 75.19
- viral RNA copies and viral titers in Vero E6 cells [6, 24]: significantly reduced viral RNA copies and viral titers
- CC50 [22]: > 100 µM
- CC10 (10% cytotoxic concentration) [20]: 1.04 µM
- maximal viral RNA copies reduction in the nasal wash, nasal turbinate and lung tissues [21, 25]: 1 log10
- viral titers reduction in the nasal wash, nasal turbinate and lung tissues [21, 25]: ~ 1.5 log10
